Usually CC50 stands for the concentration that lowers cell viability or growth by half. For orientation: solubility means the concentration that dissolves in the medium under given conditions. Low values mean a poorly soluble substance, high ones a readily soluble substance. In general, EC50 refers to the midpoint of the concentration-response curve.

The values that follow come from paper PMC11648822, “Lactam Truncation Yields a Dihydroquinazolinone Scaffold with Potent Antimalarial Activity that Targets PfATP4” (Chemmedchem, 2024).

Data set [1] is described as follows: Human HepG2 cytotoxicity assay (Cell Titre Glo). The format is cell-based. The following applies: HepG2 cells, growth inhibition at 48 h, 4 replicate experiments, read-out: HepG2 CC50 (SD). An excerpt:
This assay uses Cell TitreGlo as a metabolic maker for human HepG2 cell growth and uses a protocol previously described.[32]

Data set [2] in a line: Human liver microsome stability. The format is in vitro ADME. The following applies: human liver microsomes; read-out: HLM CLint. The source says: (§1) Human liver microsome stability, rat hepatocyte stability, aqueous solubility and eLogD are platform assays conducted by TCG Lifesciences and undertaken using previously described protocols.[10]
For orientation: Microsomes from liver hold many membrane-bound enzymes, among them those of drug oxidation.

A short description of another data set: Rat hepatocyte stability. The following applies: rat hepatocytes; read-out: Rat Hep CLint. The format is in vitro ADME.
Source text: as §1

The nature of data set [3]: Aqueous solubility (pH 7.4). The format is physicochemical.
Source text: as §1

Data set [4] relates to P. falciparum Dd2 parental strain. Briefly: PfATP4 drug resistant parasite viability assay (LDH), Dd2 parental. The settings on record: Plasmodium falciparum, DD2, 72 h, read-out: Dd2^parental EC50 (SD). The format is cell-based. The procedure:
(§2) These assays were performed according to a previously described protocol.[16] Briefly, P. falciparum Dd2 strains treated with compound were incubated for 72 h at 37 °C. After incubating for 72 h, plates were frozen at −80 °C and then thawed at room temperature for at least 2 h. LDH activity, a surrogate for parasite growth was measured by the addition of the Malstst reagent mix, followed by incubation for 30 min and absorbance read using a ClarioStar Microplate reader at 650 nm. Values were normalized to DMSO control as a percentage and EC50 and dose response curves generated using GraphPad Prism.

Data set [5] concerns P. falciparum Dd2 strain with 2.8-fold amplification in PfATP4. Briefly: 'compound 49' resistant parasite viability assay (LDH), Dd2 2.8 CNV. The format is cell-based. The settings on record: Plasmodium falciparum, DD2, 72 h, read-out: Dd2^2.8 CNV EC50 (SD). The procedure: as §2
The subject of data set [6] is P. falciparum Dd2 PfATP4^triple (I398F, P990R, D1247Y) strain. Kind of data set: PfATP4 drug resistant parasite viability assay (LDH), Dd2 triple. The format is cell-based. The following applies: Plasmodium falciparum, DD2, 72 h, read-out: Dd2^triple EC50 (SD). The procedure: as §2
Data set [7] concerns P. falciparum 3D7 parasites. Briefly: P. falciparum viability assay (SYBR green), 3D7. The format is cell-based. The following applies: Plasmodium falciparum, read-out: P. falciparum parental EC50 (SD) 3D7. The procedure: (§3) These assays were performed as previously described.[16] […] Parasites were synchronised with 5 % (w/v) sorbitol (Sigma‐Aldrich) treatments for ring stages. […] Parasites were grown in 1 % haematocrit, at 1 % and 2 % parasitaemia for P. falciparum and P. knowlesi respectively. […] Parasitaemia was measured using a SYBR DNA staining assay on a fluorometer.[33] After the incubation period, supernatants were removed and well contents were resuspended in PBS.

A further data set relates to P. falciparum Dd2. Briefly: P. falciparum viability assay (SYBR green), Dd2. The format is cell-based. The following applies: Plasmodium falciparum, DD2, 72 h, read-out: P. falciparum parental EC50 (SD) Dd2. The procedure:
(§4) These assays were performed as previously described.[16] P. falciparum 3D7 parasites and resistant lines Dd2, W2mef, 7G8, and artemisinin‐resistant Cambodian isolate (Cam3.I (2539T)), and P. knowlesi YH1, were cultured in human O^+ erythrocytes (RBCs) (Australian Red Cross Blood Service), in RPMI‐HEPES culture medium (pH 7.4, 50 μg/mL hypoxanthine, 25 mM NaHCO3, 20 μg/mL gentamicin, 0.5 % Albumax II (GibcoBRL)) (Thermo Fisher Scientific) and maintained in an atmosphere of 1 % O2, 4 % CO2 and 95 % N2. Parasites were synchronised with 5 % (w/v) sorbitol (Sigma‐Aldrich) treatments for ring stages. Growth assays for measuring drug inhibition of in‐cycle, ring to schizont stage parasites have been described previously. Parasites were grown in 1 % haematocrit, at 1 % and 2 % parasitaemia for P. falciparum and P. knowlesi respectively. […] Parasitaemia was measured using a SYBR DNA staining assay on a fluorometer.[33] After the incubation period, supernatants were removed and well contents were resuspended in PBS.

The subject of data set [8] is P. knowlesi YH1 parasites. Briefly: P. knowlesi viability assay (SYBR green). The format is cell-based. The following applies: Plasmodium knowlesi, 48 h, read-out: P. knowlesi EC50 (SD) YH1. The procedure: as §3
The next data set has as its system P. falciparum W2^mef. Briefly: Multidrug-resistant parasite viability assay (SYBR green), W2mef. The format is cell-based. The following applies: Plasmodium falciparum, W2, 72 h, read-out: multidrug resistant P. falciparum strains EC50 (SD) W2^mef. The procedure: as §4
A further data set relates to P. falciparum 7G8. Briefly: Multidrug-resistant parasite viability assay (SYBR green), 7G8. The format is cell-based. The settings on record: Plasmodium falciparum, 7G8, 72 h, read-out: multidrug resistant P. falciparum strains EC50 (SD) 7G8. The procedure: as §4
Data set [9] concerns P. falciparum NF54 male gametes. Briefly: Dual gamete formation assay, male. The format is cell-based. The settings on record: Plasmodium falciparum; NF54 stage V gametocytes, 48 h incubation; exflagellation 20 min after induction. Here is the method: (§5) PfATP4 inhibitors are known to block the transmission of parasites from humans to mosquitoes by interfering with both gametocytes and gamete development.[29] We evaluated a subset of truncated analogues against male and female gametes using a previously described assay. In this assay, stage V gametocytes are treated with compounds and then xanthurenic acid is added and a drop in temperature is used to simulate the mosquito gut environment to induce gametogenesis. After 30 min of compound treatment, male gamete viability is determined by microscopy measuring exflagellation, and after 24 h of compound treatment, female viability is measured using a female gamete specific αPfs25 antibody.
(§6) The compounds were evaluated as previously described.[34] Briefly, mature P. falciparum NF54 stage V gametocytes were exposed to compounds for 48 h at 37 °C in 384 well plates in gametocyte culture medium (RPMI 1640 supplemented with 25 mM HEPES, 50 μg mL^−1 hypoxanthine, 4.8 g L^−1 NaHCO3, 2 mM L‐glutamine, 5 % pooled type AB serum, 0.5 % Albumax II (Gibco)) under a 1 % O2/ 3 % CO2/ 96 % N2 environment. Gametogenesis was then triggered by the addition of 10 μL ookinete medium (gametocyte culture medium supplemented with 100 μM xanthurenic acid and 0.27 μg mL^−1 Cy3‐labelled anti‐Pfs25 antibody) to each well at room temperature. Plates were then cooled on a metal block at 4 °C for four min to ensure even cooling and then stabilised for a further 4 min at 28 °C. At 20 min post‐induction, male gametogenesis was recorded in each well by automated brightfield microscopy using a x4 objective lens and 1.5x magnifier (x6 effective magnification). Afterward, plates were incubated in the dark at room temperature for 24 h and then female gametogenesis was recorded in each well by automated fluorescence microscopy (anti‐Pfs25‐positive cells). […] All data was evaluated in comparison to the positive and negative controls to calculate percentage inhibition of male and female gametocytes, and dose response analysis and EC50 calculation were performed using GraphPad Prism.

The test system of data set [10] is P. falciparum NF54 female gametes. Kind of data set: Dual gamete formation assay, female. The format is cell-based. The settings on record: Plasmodium falciparum; NF54 stage V gametocytes, 48 h incubation; αPfs25 antibody 24 h after induction. The procedure:
as §5, §6

[11] abbreviates: aqueous medium at pH 7.4, pH 7.4, aqueous buffer.

Molecules are shown by their SMILES. In brackets after ≈: the same amount, converted by molar mass. Like-named read-outs stand apart in the source and are kept apart here.

`CN1C(=O)c2ccc(Cl)cc2NC1(C)C(=O)Nc1cncc(Cl)c1` (stereo not shown) [Compound 14, 7‐Chloro‐N‐(5‐chloro‐3‐pyridyl)‐2,3‐dimethyl‐4‐oxo‐1H‐quinazoline‐2‐carboxamide]: the half-maximal cytotoxic concentration (CC50) at 48 h in data set [1] is above 40000 nM. For the same compound, the microsomal CLint in [2] amounted to 60 µL/min/mg. In addition, the hepatocyte CLint in “Rat hepatocyte stability” was found to be 25 µL/min/1e6 cells. In addition, the solubility in data set [3] (aqueous medium (pH 7.4; buffer not named), pH 7.4, aqueous buffer) is 5.2 µM (≈ 1.9 µg/mL); in [3] (aqueous medium at pH 7.4 (buffer not named), pH 7.4, aqueous buffer) it was below 5.2 µM. Further, the EC50 in [4] was found to be 50 nM; in [5], 61 nM; in [6], 160 nM; in data set [7] (3D7, SYBR green, 72 h) it was 16 nM; in the data set on P. falciparum Dd2 it was 19 nM; in data set [8] it was 58 nM. Further, the EC50 was determined as 17 nM with P. falciparum W2^mef, 43 nM in the data set on P. falciparum 7G8, 130 nM in data set [9] and 120 nM in data set [10].
Consider `CN1C(=O)c2ccc(-n3cccn3)cc2NC1(C)C(=O)Nc1cncc(Cl)c1` (stereo not shown) [Compound 33, N‐(5‐Chloropyridin‐3‐yl)‐2,3‐dimethyl‐4‐oxo‐7‐(1H‐pyrazol‐1‐yl)‐1,2,3,4‐tetrahydroquinazoline‐2‐carboxamide], for which the CC50 at 48 h in data set [1] is above 40000 nM. In addition, the microsomal CLint in data set [2] is 37 µL/min/mg. In addition, the hepatocyte CLint in the data set “Rat hepatocyte stability” stood at 14 µL/min/1e6 cells. Moreover, the solubility in [3] (setting [11]) came out at 2.6 µM (≈ 1.03 µg/mL). The EC50 in [4] worked out at 73 nM; in data set [5] it was 124 nM; in data set [6], 584 nM; in data set [7] (3D7, 72 h), 45 nM; in the data set with P. falciparum Dd2, 46 nM; in data set [8], 101 nM. Also, the EC50 in the data set with P. falciparum W2^mef was 39 nM; in the data set on P. falciparum 7G8, 101 nM; in [9] it was 460 nM; in data set [10], 1000 nM.
`COc1cc(F)c2c(c1)NC(C)(C(=O)Nc1cncc(Cl)c1)N(C)C2=O` (stereo not shown) [Compound 36, N‐(5‐Chloropyridin‐3‐yl)‐5‐fluoro‐7‐methoxy‐2,3‐dimethyl‐4‐oxo‐1,2,3,4‐tetrahydroquinazoline‐2‐carboxamide]: in data set [1], the CC50 at 48 h is above 40000 nM. Moreover, the microsomal CLint in data set [2] amounted to 34 µL/min/mg. Further, the hepatocyte CLint in “Rat hepatocyte stability” amounted to 8 µL/min/1e6 cells. In [3] (setting [11]), the solubility is 4 µM (≈ 1.52 µg/mL). For the same compound, the half-maximal effective concentration (EC50) worked out at 32 nM in data set [4]; 56 nM in data set [5]; 100 nM in [6]; 10 nM in data set [7] (3D7, SYBR green, 72 h); 13 nM in the data set with P. falciparum Dd2; 33 nM in data set [8]. The EC50 in the data set with P. falciparum W2^mef came to 10 nM; with P. falciparum 7G8, 31 nM; in data set [9] it was 110 nM; in data set [10], 210 nM.
